The text below walks through data of patent publication US8143313B2, “Compositions and methods for preventing or treating an inflammatory response” (McGill University, priority 2004, dated 2012).

In data set [1] the test system is CFTR-deficient cells (CFTE29o-). Nature of the data set: IL-8 release (ELISA) by CFTR-deficient human tracheal epithelial cells. The format is cell-based. As to the method: (§1) General Procedures. Normal (9HTEo-) and CFTR-deficient human tracheal epithelial cells (CFTE29o- ΔF508 CFTR) were used in the analysis disclosed herein and grown in pre-coated T-75 flasks in a medium containing 10% fetal bovine serum (FBS). Cells were re-fed every 2-3 days until they reached confluency. Adherent monolayers were released from the plastic surface after treatment with trypsin-EDTA (Sigma-Aldrich Co., St. Louis, Mo.) and split into 24-well plates for about 24 hours before receiving treatments.
(§2) Treatment with Fenretinide and TNF-α. Normal and CFTR-deficient cells were treated with fenretinide (Wang, et al. (2001) Cancer Res. 61:5102-5105; Erdreich-Epstein, et al. (2002) supra) at doses known to effectively increase cellular ceramide content in cell culture. Normal (9HTEo-; 0.4×10^6 cells/well) and CFTR-deficient human epithelial cells (CFTE29o- ΔF508 CFTR; 0.6×10^6 cells/well) were incubated for 24 hours at 37° C. in 5% CO2 with 1.25 μM, 2.5 μM or 5 μM fenretinide in Eagle's minimum essential medium (MEM) containing 10% fetal bovine serum (FBS). Subsequently, the medium was replaced with fresh MEM 2% FBS containing the same initial concentrations of fenretinide and cells were grown for an additional 24 hours to characterize the impact of fenretinide on IL-8 release in a non-inflammatory condition. To characterize the inflammatory condition, cells were treated with MEM 2% FBS containing 1.25 μM, 2.5 μM or 5 μM fenretinide and concurrently stimulated with human recombinant TNF-α (10 ng/mL) for another 24 hours. All experiments included unstimulated negative control wells.
IL-8 Release and Cell Viability Assays. Supernatants were collected from treated cells and the amount of IL-8 released into the medium was determined using an enzyme-linked immunosorbent assay (ELISA) kit (OPTEIA™ Human IL-8 Set; BD PHARMINGEN™, San Diego, Calif.). Briefly, 96-well plates were coated overnight with capture antibody, washed with PBS, 0.05% TWEEN®-20 and coated with PBS, 10% heat-inactivated FBS. Known concentrations of IL-8 (standard) and supernatants containing released IL-8 were added as aliquots into appropriate wells, incubated for 2 hours and subsequently decanted from the wells. Enzyme-conjugated anti-IL-8 antibody was added and incubated for 1 hour. After washing the plate, a substrate for the enzyme was added and the plate incubated for 30 minutes. The reaction was stopped using a 2NH2SO4 solution and the absorbance was read at 450 nm.
For orientation: ELISA stands for enzyme-linked immunosorbent assay.

The next data set has as its system normal cells (9HTEo-). Description: IL-8 release (ELISA) by normal human tracheal epithelial cells. Type of data set: cell-based. The protocol:
as §1, §2
IL-8 Release and Cell Viability Assays. Supernatants were collected from treated cells and the amount of IL-8 released into the medium was determined using an enzyme-linked immunosorbent assay (ELISA) kit (OPTEIA™ Human IL-8 Set; BD PHARMINGEN™, San Diego, Calif.). Briefly, 96-well plates were coated overnight with capture antibody, washed with PBS, 0.05% TWEEN®-20 and coated with PBS, 10% heat-inactivated FBS. […] The reaction was stopped using a 2NH2SO4 solution and the absorbance was read at 450 nm.

For data set [2], the system named is CFTR-deficient human epithelial cells (CFTE29o-). Description: Proliferation (viable cell counts) of CFTR-deficient human epithelial cells. The format is cell-based. As to the method: CFTE29o- (0.6×10^6/well in a 24-well plate) cells were incubated with 1.25 μM, 2.5 μM or 5 μM of fenretinide for 24 hours in a MEM containing 10% FBS. Vehicle control wells contained ethanol (EtOH) at concentrations equivalent to those used with fenretinide treatments.
CFTE29o- cells were incubated with 1.25 μM, 2.5 μM or 5 μM of fenretinide for 24 hours in a MEM containing 10% FBS. After 24 hours, the medium was replaced by MEM 2% FBS containing the same concentrations of fenretinide and stimulated with TNF-α for another 24 hours. Viable cell counts were determined.
as §2
(§3) Cell viability was assessed using a 3-(4,5-dimethylthiazol-2-yl)-2,5-diphenyltetrazolium bromide (MTT) assay according to standard methods (Mosmann, T. (1983) J. Immunol. Methods. 65:55-63). […] Cells were incubated for 4 hours at 37° C., supernatant was aspirated, HCl-isopropanol solution (0.04 N HCl in isopropanol) was added, and after 5 minutes the optical densities were measured at 540 nm. […]

Data set [3] deals with normal human epithelial cells (9HTEo-). Nature of the data set: Proliferation (viable cell counts) of normal human epithelial cells. Type of data set: cell-based. To be noted: pro-inflammatory and non-inflammatory state, in particular 2.5 μM and higher. As to the method: 9HTEo- (0.4×10^6/well in a 24-well plate) cells were incubated with 1.25 μM, 2.5 μM or 5 μM of fenretinide for 24 hours in a MEM containing 10% FBS. Vehicle control wells contained ethanol (EtOH) at concentrations equivalent to those used with fenretinide treatments.
9HTEo- cells were incubated with 1.25 μM, 2.5 μM or 5 μM of fenretinide for 24 hours in a MEM containing 10% FBS. After 24 hours, the medium was replaced by MEM 2% FBS containing the same concentrations of fenretinide and stimulated with TNF-α for another 24 hours.
Treatment with Fenretinide and TNF-α. Normal and CFTR-deficient cells were treated with fenretinide (Wang, et al. (2001) Cancer Res. 61:5102-5105; Erdreich-Epstein, et al. (2002) supra) at doses known to effectively increase cellular ceramide content in cell culture. […]
as §3

A further data set deals with CFTE29o-. Description: Apoptosis, in situ end labeling of DNA strand breaks, CFTR-deficient cells. The format is cell-based, human. To be noted: for apoptosis by fluorescein staining: no TNF-α. The protocol: (§4) Adherent epithelial cell lines, CFTE29o- and 9HTEo-, grown on coated coverslips for 24 hours, were treated with fenretinide at the same concentrations used to determine IL-8 release as indicated supra. After a 24-hour incubation with fenretinide, cells were stimulated with TNF-α (experimental group) or with Cisplatin at […] (as a positive control) for an additional 24 hours. Cells were fixed in 4% paraformaldehyde in PBS at pH 7.4 for one hour at room temperature. Cells were subsequently washed and permeabilized using 0.1% TRITON™ X-100 in 0.1% citrate buffer for 2 minutes on ice. After being washed, the coverslips were individually removed from 24-well plates and cells were incubated for one hour at 37° C. with terminal deoxynucleotidyl transferase (Tdt) enzyme conjugated to fluorescein (Roche Diagnostics, Indianapolis, Ind.) for visualization. A negative slide was produced by incubating a slide of both cell lines with buffer minus the Tdt enzyme. The Tdt enzyme binds to the free hydroxyl end of DNA strand breaks. Subsequently, cells were washed twice with PBS and coverslips were placed on slides in the presence of the anti-fade medium VECTASHIELD® to facilitate fluorescence preservation. Slides were individually labeled with numbers to keep the investigator blinded to the outcome until after the slides were reviewed. Four randomly selected fields were visualized at 400× (total magnification) using a fluorescence microscopy and cells that appeared brightly flourescent were counted. Pictures were taken to estimate the number of positive to negative cells per field.

The subject of another data set is 9HTEo-. Nature of the data set: Apoptosis, in situ end labeling of DNA strand breaks, non-cystic fibrosis cells. The format is cell-based, human. To be noted: for apoptosis by fluorescein staining: no TNF-α. The protocol:
as §4

In another data set the test system is Pseudomonas aeruginosa. Description: Pulmonary infection of CFTR knockout and wild-type mice with P. aeruginosa. The format is in vivo, mouse. The text has this:
Homogenous C57BL/6 Cftr^unc knockout mice generated by insertion of a stop codon in exon 10 of Cftr gene are well-known in the art (Snouwaert, et al. (1992) Science 257:1083-8; Gosselin, et al. (1998) Am. J. Respir. Crit. Care Med. 157:1253-62). Mice used in these studies represent offsprings from B6-Cftr^unc (+/−) mice backcrossed to C57BL/6 mice for 10 to 12 generations.
Housing Conditions. B6-Cftr (−/−) and B6-Cftr (+/+) mice were housed on corn cob bedding (Anderson, Maumee, Ohio) and fed sterile PEPTAMEN® (Clintec Nutrition, Deerfield, Ill.), a low-residue liquid diet which was previously shown to prevent intestinal obstruction in Cftr^unc knockout mice (Eckman, et al. (1995) Am. J. Physiol. 269:L625-L630). A standard diet was used (Gosselin, et al. (1998) supra), wherein the caloric content of the diet was 420 KJ/100 mL and an adult mouse consumes approximately 15 mL/day. In order to maintain the sterility of the diet, it was changed daily. For one month prior to pulmonary infection with P. aeruginosa, mice were provided fenretinide (prepared in PEPTAMEN®) in the drinking water at 5 mg/kg body weight. The dose was set for each individual mouse based on its weight and adjusted every week (e.g., 147 μg/mouse/day for 30 gram mouse).
Infection of Mice. […] The number of viable P. aeruginosa entrapped in agar beads was determined by plating serial dilutions of the homogenized bead suspension on TSA plates. […]
Bronchoalveolar Lavages (BAL). […] Alveolar cells were centrifuged, resuspended in 1 mL PBS, stained with Turk's solution and counted. The proportions of macrophages, lymphocytes, and polymorphonuclear leukocytes (PMN) were calculated after counting 200 alveolar cells on cytospin preparations stained with DIFF-QUICK® (American Scientific Products, McGaw Park, Ill.).
Measurement of Bacterial Burden. […] Serial 10-fold dilutions of homogenates were plated on petri dishes containing TSA and the number of colony-forming units (CFU) per organs was counted after overnight incubation at 37° C. […]

The conditions of data set [4]: oral, once a day, 28-day courses, cited from earlier work.
The mark [5] stands for this setting: CFTR-deficient and wild-type mice, 5 mg/kg for one month before challenge, 3 days post-infection.

For the molecule `CC1=C(/C=C/C(C)=C/C=C/C(C)=C/C(=O)Nc2ccc(O)cc2)C(C)(C)CCC1` [fenretinide, all-trans-N-(4-hydroxyphenyl)retinamide], the “IL-8 level as % of the TNF-α-stimulated value, dose-dependent reduction” value in data set [1] (CFTE29o-, TNF-α 10 ng/mL, fenretinide 1.25-5 μM, greatest reduction) is 70%. Besides, the “threshold level for significance of IL-8 reduction” value in data set [1] (CFTE29o-, TNF-α-stimulated) was found to be 2.5 µM. Also, the activity at 1.25 µM in data set [1] (Homo sapiens, Epithelial cell, CFTE29o-, TNF-α 10 ng/mL, 1.25 μM fenretinide, not significantly different from control, read-out: IL-8 level as % of control (TNF-α only)) is 86%. Moreover, the “increase of IL-8 levels in the absence of TNF-α stimulation” value in data set [1] (cystic fibrosis cells, no TNF-α, fenretinide 1.25-5 μM, dose-dependent) is 2- to 8 fold. Besides, in the data set with normal cells (9HTEo-) (9HTEo-, TNF-α 10 ng/mL, fenretinide 1.25-5 μM), the “IL-8 maximum level as % of that secreted by TNF-α-stimulated cells” value is recorded as 139%. Besides, in the data set on normal cells (9HTEo-) (9HTEo-, TNF-α-stimulated), the “threshold level of IL-8 enhancement” value came out at 2.5 µM. In addition, the “enhancement in basal IL-8 release” value with normal cells (9HTEo-) (non-cystic fibrosis cells, no TNF-α, all treatment doses) is reported as “greater than 14 fold”. Also, the cell numbers entry in data set [2] (CFTR-deficient cells, non-inflammatory condition, 2.5 μM) is given as “decrease in CFTR-deficient epithelial cell numbers”; in data set [2] (cystic fibrosis cells, 1.25 μM) it was “did not show a decrease in cell numbers”. For the same molecule, the cell proliferation result in data set [2] (CFTR-deficient cells, pro-inflammatory and non-inflammatory state, in particular 2.5 μM and higher) was “significant decrease in cell proliferation”; in data set [3], “significant decrease in cell proliferation”. The “apoptosis in the presence of TNF-α” value was “no enhancement of apoptosis” in the data set with CFTE29o- (CFTR-deficient cells, TNF-α, 1.25 and 2.5 μM); “significant apoptosis” with 9HTEo- (TNF-α, both doses (1.25 and 2.5 μM)). In addition, the “apoptosis by fluorescein staining” value with CFTE29o- (CFTR-deficient cells, 1.25 μM) is “no morphology of apoptosis, weak fluorescence was observed”; in the data set on CFTE29o- (CFTR-deficient cells, 2.5 μM), “early stage apoptosis”; in the data set on 9HTEo- (1.25 μM), “weaker fluorescence and an earlier stage of apoptosis”; with 9HTEo- (2.5 μM) it was “strong fluorescence and classic apoptotic morphology”. For the same molecule, the “bacterial burden in lungs” value in the data set on Pseudomonas aeruginosa (setting [5]) was “reduced”. In addition, the “recruitment of inflammatory cells to the lungs” value with Pseudomonas aeruginosa (setting [5]) was “decrease in the recruitment of inflammatory cells”. In addition, the “reduction in P. aeruginosa cell numbers as compared to controls” value with Pseudomonas aeruginosa (cystic fibrosis mice pretreated with fenretinide) is listed as “approximately 40%”. Also, the “subjects with side effects” value in data set [4] (subjects 2-21 years with neuroblastoma) was 15 of the 45. For the same molecule, in data set [4], the “time to reversal of side effects after discontinuation of treatment” value was at most 7 days.

Turning to `N.N.[Cl][Pt][Cl]` [cisplatin], in the data set on CFTE29o- (CFTR-deficient epithelial cells, as opposed to non-cystic fibrosis cells), the “apoptotic effect of positive control” value is reported as “resistant to the apoptotic effects”.
